Measurements: paper PMC11726359, “Discovery of Rezatapopt (PC14586), a First-in-Class, Small-Molecule Reactivator of p53 Y220C Mutant in Development” (ACS Medicinal Chemistry Letters, 2024)
Like-named read-outs stand apart in the source and are kept apart here.

What was measured:
[1] = Half-life in human liver microsomes; format: in vitro ADME; details: read-out: half-life (T1/2)
Description: However, there was a significant improvement in potency with fluorine substitution at the hydrophobic anchor (R3 = CF3, compound 7). […] The trifluoromethyl group remained the best anchor throughout the hit expansion and drug discovery campaign. Assessment of the 4-substituted indole compounds (R1 = H, compounds 8–14) led to a breakthrough regarding the potency of the compounds. Our molecular modeling predicted that the side chain of Threonine-150 within the p53 Y220C protein would form a hydrogen bond with the ligand. This interaction helped to orient the ligand in the binding pocket of the p53 Y220C mutant protein and enhance other interactions such as hydrophobic and van der Waals interactions. […] With the nitrogen atom in place, various polar groups were assessed, and it was determined that basic nitrogen, such as that in the piperidine ring, was preferred for maintaining the potency of the compound (R2 = S5). Many substituents can be tolerated for the aromatic ring occupying the subsite.

[2] = biological target: T1, recombinant His-tag Y220C p53 DNA binding domain (Homo sapiens, UniProt P04637, Y220C); test: TR-FRET DNA binding assay (SC150); format: biochemical
T1 construct: Y220C p53 DBD protein (amino acids #94-312); made in house
Description: At the outset of our hit generation campaign, several small molecules targeting the p53 Y220C mutant protein were identified. Two notable examples, supported by crystallographic data, were the compounds from the carbazole series[6] (PhiKan83) and the iodophenol series[7] (PK1596) (Figure 1). To assess the in vitro potency of the p53 Y220C reactivators, a time-resolved fluorescence resonance energy transfer (FRET) assay was developed. In this assay, recombinant His-tag Y220C p53 DNA binding domain binds to biotin-labeled consensus DNA, and the FRET signal is measured between the allophycocyanin-conjugated anti-His-tag antibody and europium-conjugated streptavidin. The […] concentration required to increase DNA binding by 1.5-fold (SC150) could then be determined. The carbazole compound (PhiKan83) enhanced DNA binding with an SC150 of 37.2 μM. […]
Time-Resolved Fluorescence Resonance Energy Transfer (TR-FRET) Assay
DNA binding activity was measured by the TR-FRET assay. In this assay, the recombinant His6-tag Y220C p53 DNA binding domain (DBD) protein binds to biotin labeled consensus DNA. The binding of recombinant His6-tag Y220C p53 DBD protein and biotin-labeled consensus DNA is detected by the fluorescence resonance energy transfer (FRET) between allophycocyanin (APC) conjugated anti-His6 tag antibody and Europium-(Eu) conjugated Streptavidin. Test compounds, at 2 mM stock in DMSO, were diluted t hr e e-f ol d in serial dilutions in DMSO and 1.2 µL per well were added into 384-well polypropylene black plates (NUNC). Subsequently, 30 µL per well of 181 nM recombinant His6-tag Y220C p53 DBD protein (amino acids #94-312) and 9.1 nM of APC conjugated anti-His6 tag antibody (Columbia Biosciences) in ice-cold Assay Buffer 1 (50 mM Tris-HCl, pH 7.4, 75 mM KCl, 0.75 mM DTT and 0.2 mg/mL bovine serum albumin [BSA]) was added. As a background control, 30 µL of Assay Buffer 1 containing 9.1 nM of APC anti-His6 antibody (no Y220C protein) was also added into a second set of serial diluted compound plates. The samples were centrifuged at 1,200 rpm (Eppendorf 5810R plate centrifuge) for 1 minute and incubated at room temperature (20 °C) for 15 min. The samples were then incubated at 27 °C in a water bath for 48 min. Afterwards, 5 µL per well of 145 nM biotin labeled oligonucleotide from a consensus DNA p53 response element (a DNA duplex with 5’ to 3’sequence of […]
and biotin attached to the 3’ end of the complementary DNA) and 8.8 nM Eu-conjugated streptavidin (Columbia Biosciences) in Assay Buffer 2 (50 mM Tris-HCl, pH 7.4, 75 mM KCl and 0.2 mg/mL BSA) were added. The samples were centrifuged at 1,200 rpm for 1 min and incubated at room temperature (20 °C) for 20 min. Assay signals were monitored by reading excitation at 340 nm, and emission fluorescence at 615 and 665 nm, on an Envision reader (Perkin El mer). Normalized TR -FRET assay signal (Rn) was calculated by the formula:
Rn = [(A − B a − C × (D − Bd))/(D − Bd)] × (Dc − B d),
C = (Ac − B a)/(Dc − B d), […]

[3] = tested on: NUGC-3, gastric cancer cell line with a TP53 Y220C mutation; test: MTT cell proliferation assay; format: cell-based, human; details: for IC50: Homo sapiens, NUGC-3, 120 h, NUGC-3 cells, five days incubation
Experimental: We also evaluated the effects of these compounds on the growth and viability of four cancer cell lines in vitro. Two of the cell lines (NUGC-3, gastric cancer cell line with a TP53 Y220C mutation and T3M-4, pancreatic carcinoma cell line) have the TP53 Y220C mutation leading to the p53 Y220C mutant protein; SJSA-1 is a p53 WT cell line, and NUGC-3-KO is an isogenic p53 knockout cell line.[11] After incubating the cells with the compounds for five days, cell viability was measured using the 3-(4,5-dimethylthiazol-2-yl)-2,5-diphenyltetrazolium bromide (MTT) assay.
C = (Ac − B a)/(Dc − B d),
Prism (GraphPad) or XLfit software (IDBS).
Cells were seeded at an appropriate
Compounds were tested at eight concentrations with 2-fold serial dilutions. […]
with a reference wavelength of 650 nm. […]
untreated cells (control). […]

[4] = Pharmacokinetic study in mice; details: 50 mg/kg
Experimental: (§1) Pharmacokinetic parameters were evaluated in female CD-1 mice. Animals received an oral gavage dose of 50 mg/kg of the test article. The test article was formulated in a solution containing 2% hydroxypropyl
(§2) cellulose and 0.5% Tween 80 in water. Blood samples were collected at 0.5, 1, 2, 4, 7, and 24 h post dose.
(§3) Blood samples were processed into plasma, and the concentrations of the test article were determined by
(§4) LC-MS/MS. P harmacokinetic parameters were calculated using the Phoenix WinNonlin 6.3 program,
(§5) employing a non- compartmental model 200.

Caco-2 permeability = format: in vitro ADME; details: human
Description: Significant efforts were dedicated to the optimization of compound 13, and a successful approach involved fluorine substitution of the piperidine ring. Fluorine substitution often plays a crucial role in medicinal chemistry, exerting a substantial impact on the characteristics of drug molecules.[12],[13] Incorporation of fluorine atoms can yield diverse effects and improvements in a drug’s pharmacological properties. In the case of the piperidine ring in compound 13, several key effects of fluorine substitution were predicted, including enhanced hydrogen bonding with Threonine-150, increased conformational rigidity of the piperidine ring, and reduced basicity. […] We postulated that the fluorine atom on the piperidine ring of compound 22, which preferentially stays in the axial position, can form a better hydrogen bond with the N-H group of Threonine-150. The enhanced cellular potency of compound 22 can be attributed to the enhanced permeability. […] Recently, insights into the conformational behavior of cis-fluorinated piperidines were reported.[14]

NUGC-3 tumor xenografts = test: NUGC-3 tumor xenograft efficacy in nude mice; format: in vivo, mouse; details: for inhibition of tumor growth: oral, daily
Experimental: Compound 26 (rezatapopt; PC14586), which had the most favorable plasma exposure, was evaluated for its ability to inhibit the growth of NUGC-3 tumor xenografts in nude mice.
Study of C ompound 26 in NUGC-3 Xenograft
Female Balb/c nude mice, aged 4 to 6 weeks, were obtained from Envigo (Madison, WI). All mice were housed at the PMV Pharmaceuticals Vivarium. Mouse care and experimental procedures adhered to institutional guidelines for ethical use, with all research protocols approved by the Institutional Animal Care and Use Committees of PMV Pharmaceuticals. The mice were maintained at ambient temperatures of 68–72 °F, with 30–70% humidity, and a 12 -hour dark/light cycle.
NUGC-3 cells were resuspended at a concentration of 1×10^7 viable cells/mL in a 50:50 mixture of phosphate-buffered saline and Matrigel Matrix (Corning). Subsequently, 100 µL of the suspension was injected subcutaneously into the dorsal flankof the mice . Mice were selected and randomized into treatment groups based on tumor size.

Toxicological studies = details: result in words
[5] = tested on: TP53 Y220C mutant solid tumors; design: method as in doi:10.1158/1535-7163.TARG-23-LB_A25; details: cited from earlier work
[6] = female, CD-1, mouse, in vivo, po, 50 mg/kg
Experimental: as §1, §2, §3, §4, §5

[7] = Table 1, concentration required to increase DNA binding by 1.5-fold
[8] = Table 2, concentration required to increase DNA binding by 1.5-fold
[9] = Table 3, concentration required to increase DNA binding by 1.5-fold

CCn1c(C#CCNc2ccccc2)cc2cc(CNC)ccc21 [Compound 1, N-[3-[1-ethyl-5-(methylaminomethyl)indol-2-yl]prop-2-ynyl]aniline]
half-life [1]: 4 min | SC150 ([2]; Figure 1, enhancement of DNA binding): 13600 nM | SC150 [2, 7]: 13600 nM

COc1cc(S(C)(=O)=O)ccc1NCC#Cc1cc2c(NC3CCN(C)CC3)cccc2n1CC(F)(F)F [Compound 13]
IC50 ([3]; Table 2): 2100 nM | Mouse PK Exposure AUC0-last ([4]; Table 2, PO): 3545 ng·h/mL | Mouse PK Exposure Cmax ([4]; Table 2, PO): 903 ng/mL | SC150 [2, 7]: 23 nM | SC150 [2, 8]: 23 nM | Papp (Caco-2 permeability): 11.8 ×10⁻⁶ cm/s

COc1cc(S(C)(=O)=O)ccc1NCC#Cc1cc2c(N[C@@H]3CCN(C)C[C@@H]3F)cccc2n1CC(F)(F)F [Compound 22, N-[(3S,4R)-3-fluoro-1-methyl-4-piperidyl]-2-[3-(2-methoxy-4-methylsulfonyl-anilino)prop-1-ynyl]-1-(2,2,2-trifluoroethyl)indol-4-amine]
IC50 ([3]; Table 2): 300 nM | IC50 ([3]; Table 3): 325 nM | fold increased potency compared with compound 13 ([3]; MTT assay, vs compound 13): approximately 7 fold | Mouse PK Exposure AUC0-last ([4]; Table 2, PO): 12567 ng·h/mL | Mouse PK Exposure Cmax ([4]; Table 2, PO): 2103 ng/mL | SC150 [2, 8]: 8 nM | Papp (Caco-2 permeability): 19.9 ×10⁻⁶ cm/s

COc1cc(C(=O)O)ccc1NCC#Cc1cc2c(N[C@@H]3CCN(C)C[C@@H]3F)cccc2n1CC(F)(F)F [Compound 24, 4-((3-(4-(((3S,4R)-3-fluoro-1-methylpiperidin-4-yl)amino)-1-(2,2,2-trifluoroethyl)-1H-indol-2-yl)prop-2-yn-1-yl)amino)-3-methoxybenzoic acid]
IC50 ([3]; Table 3): 990 nM | Mouse PK Exposure AUC0-last ([4]; Table 3, PO): 57882 ng·h/mL | Mouse PK Exposure Cmax ([4]; Table 3, PO): 27700 ng/mL | SC150 [2, 9]: 11 nM | tumor growth inhibition (NUGC-3 tumor xenografts; 150 mg/kg, same xenograft model): 54%

COc1cc(C(N)=O)ccc1NCC#Cc1cc2c(N[C@@H]3CCN(C)C[C@@H]3F)cccc2n1CC(F)(F)F [Compound 25, 4-[3-[4-[[(3S,4R)-3-fluoro-1-methyl-4-piperidyl]amino]-1-(2,2,2-trifluoroethyl)indol-2-yl]prop-2-ynyl-amino]-3-methoxy-benzamide]
IC50 ([3]; Table 3): 446 nM | Mouse PK Exposure AUC0-last ([4]; Table 3, PO): 39774 ng·h/mL | Mouse PK Exposure Cmax ([4]; Table 3, PO): 4473 ng/mL | SC150 [2, 9]: 8 nM

CNC(=O)c1ccc(NCC#Cc2cc3c(N[C@@H]4CCN(C)C[C@@H]4F)cccc3n2CC(F)(F)F)c(OC)c1 [Compound 26]
IC50 ([3]; Table 3): 504 nM | Mouse PK Exposure AUC0-last ([4]; Table 3, PO): 163342 ng·h/mL | Mouse PK Exposure Cmax ([4]; Table 3, PO): 16600 ng/mL | safety profile in toxicological studies (Toxicological studies): favorable safety profile | SC150 [2, 9]: 9 nM | clinical efficacy in Phase 1 clinical trials ([5]; heavily pretreated patients, solid tumors harboring TP53 Y220C, listed as rezatapopt): single-agent clinical efficacy was achieved | safety profile in Phase 1 clinical trials ([5]; within the efficacious dose range): favorable safety profile | tumor regression (NUGC-3 tumor xenografts; 100 mg/kg, nude mice): 80% | effect on established human tumor xenografts harboring TP53 Y220C (NUGC-3 tumor xenografts; mouse models, well-tolerated doses, result in words): tumor inhibition and regression | inhibition of tumor growth (NUGC-3 tumor xenografts; 25 mg/kg, nude mice): 33% | inhibition of tumor growth (NUGC-3 tumor xenografts; 50 mg/kg, nude mice): 71%

COc1cc(C(=O)NC2CCOCC2)ccc1NCC#Cc1cc2c(N[C@@H]3CCN(C)C[C@@H]3F)cccc2n1CC(F)(F)F [Compound 27, 4-((3-(4-(((3S,4R)-3-fluoro-1-methylpiperidin-4-yl)amino)-1-(2,2,2-trifluoroethyl)-1H-indol-2-yl)prop-2-yn-1-yl)amino)-3-methoxy-N-(tetrahydro-2H-pyran-4-yl)benzamide]
IC50 ([3]; Table 3): 531 nM | Mouse PK Exposure AUC0-last ([4]; Table 3, PO): 3261 ng·h/mL | Mouse PK Exposure Cmax ([4]; Table 3, PO): 807 ng/mL | SC150 [2, 9]: 7 nM

COc1cc(C(=O)N2CC3(COC3)C2)ccc1NCC#Cc1cc2c(N[C@@H]3CCN(C)C[C@@H]3F)cccc2n1CC(F)(F)F [Compound 28, [4-[3-[4-[[(3S,4R)-3-fluoro-1-methyl-4-piperidyl]amino]-1-(2,2,2-trifluoroethyl)indol-2-yl]prop-2-ynyl-amino]-3-methoxy-phenyl]-(2-oxa-6-azaspiro[3.3]heptan-6-yl)methanone]
Mouse PK Exposure AUC0-last [6]: 15328 ng·h/mL | Mouse PK Exposure Cmax [6]: 2747 ng/mL | IC50 ([3]; Table 3): 457 nM | SC150 [2, 9]: 7 nM

COc1cc(C(=O)NCC(O)CO)ccc1NCC#Cc1cc2c(N[C@@H]3CCN(C)C[C@@H]3F)cccc2n1CC(F)(F)F (stereo partly drawn) [Compound 29, N-(2,3-dihydroxypropyl)-4-[3-[4-[[(3S,4R)-3-fluoro-1-methyl-4-piperidyl]amino]-1-(2,2,2-trifluoroethyl)indol-2-yl]prop-2-ynylamino]-3-methoxy-benzamide]
IC50 ([3]; Table 3): 574 nM | Mouse PK Exposure AUC0-last ([4]; Table 3, PO): 117 ng·h/mL | Mouse PK Exposure Cmax ([4]; Table 3, PO): 54 ng/mL | SC150 [2, 9]: 8 nM
